From patent US12491185B2, “Inhibitors of mPTP” (NRG Therapeutics Ltd, priority 2023, dated 2025)

Legend:
mPTP [1] = experiment: mPTP activity assay in isolated rat brain mitochondria; type: biochemical; settings: fluorescence at 10 min timepoint
Method in brief: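 Fresh brain mitochondria from female Sprague Dawley rats, digitonin-washed, in pH 7.4 mannitol/MOPS/KCl buffer with pyruvate, malate, ADP, oligomycin A and 2 μM Fluo5N. Preincubated with compounds 10 min at RT. Fluo5N fluorescence then read every 3 sec for 10 min on FLIPR Tetra.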

mPTP [2] = experiment: mPTP activity (Ca2+ retention) assay in isolated rat liver mitochondria; type: biochemical; settings: examples tested by different contract research organisations, believed comparable
Method in brief: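 pIC50 was taken from Fluo5N fluorescence at 10 min after a 75 μM CaCl2 bolus, scaled between DMSO (0%) and 5 μM cyclosporin A (100%). Compounds, ten half-log concentrations from 30 μM to 1 nM final, sat 10 min at RT with fresh female Sprague Dawley rat liver mitochondria energized by succinate plus rotenone.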

Compound | mPTP Rat brain pIC50 (mPTP [1]) | mPTP Rat liver pIC50 (mPTP [2])
Cc1n[nH]c(C(=O)NCC2(Cc3ccccc3)CCC2)n1 [Example 64, N-((1-benzylcyclobutyl)methyl)-3-methyl-1H-1,2,4-triazole-5-carboxamide] | 4.64 | <4.52
Cn1nc(C(=O)NCC2(Cc3cccc(Cl)c3)CCC2)[nH]c1=O [Example 79, N-((1-(3-Chlorobenzyl)cyclobutyl)methyl)-1-methyl-5-oxo-4,5-dihydro-1H-1,2,4-triazole-3-carboxamide] | 7.59 | 6.39
Cn1nc(C(=O)NCC2(Cc3cc(F)ccc3F)CCC2)[nH]c1=O [Example 81, N-((1-(2,5-Difluorobenzyl)cyclobutyl)methyl)-1-methyl-5-oxo-4,5-dihydro-1H-1,2,4-triazole-3-carboxamide] | 6.51 | 6.85
Cc1ccc(F)c(CC2(CNC(=O)c3nn(C)c(=O)[nH]3)CCC2)c1 [Example 83, N-((1-(2-Fluoro-5-methylbenzyl)cyclobutyl)methyl)-1-methyl-5-oxo-4,5-dihydro-1H-1,2,4-triazole-3-carboxamide] | 7.27 | 6.04
Cn1nc(C(=O)NCC2(Cc3cccc(F)c3)CCC2)[nH]c1=O [Example 84, N-((1-(3-Fluorobenzyl)cyclobutyl)methyl)-1-methyl-5-oxo-4,5-dihydro-1H-1,2,4-triazole-3-carboxamide] | 7.72 | 6.72
Cn1nc(C(=O)NCC2(Cc3ccc(F)cc3F)CCCC2)[nH]c1=O [Example 92, N-((1-(2,4-Difluorobenzyl)cyclopentyl)methyl)-1-methyl-5-oxo-4,5-dihydro-1H-1,2,4-triazole-3-carboxamide] | 7.54 | 6.31
Cn1nc(C(=O)NCC2(Cc3cccc(Br)c3)CCC2)[nH]c1=O [Example 99, N-((1-(3-Bromobenzyl)cyclobutyl)methyl)-1-methyl-5-oxo-4,5-dihydro-1H-1,2,4-triazole-3-carboxamide] | 7.68 | 5.89
Cn1nc(C(=O)NCC2(Cc3cccc(C#N)c3)CCC2)[nH]c1=O [Example 100, N-((1-(3-Cyanobenzyl)cyclobutyl)methyl)-1-methyl-5-oxo-4,5-dihydro-1H-1,2,4-triazole-3-carboxamide] | 6.32 | 5.99
Cn1nc(C(=O)NCC2(Cc3cc(F)cc(F)c3)CCC2)[nH]c1=O [Example 116, N-((1-(3,5-difluorobenzyl)cyclobutyl)methyl)-1-methyl-5-oxo-4,5-dihydro-1H-1,2,4-triazole-3-carboxamide] | 6.45 | 6.04
Cn1nc(C(=O)NCC2(Cc3ccc(F)cc3F)CCOCC2)[nH]c1=O [Example 121] | 7.1 | 6.67
O=C(NCC1(Cc2ccc(F)cc2F)CCC1)c1c[nH]c(=O)cn1 [Example 132] | 7.31 | 6.08
O=C(NCC1(Cc2ccc(F)c(F)c2)CCC1)c1nccc(=O)[nH]1 [Example 133] | 7.5 | 6.51
Cn1nc(C(=O)NCC2(Cc3ccc(F)c(F)c3)CCC2)[nH]c1=O [Example 142, N-((1-(3,4-difluorobenzyl)cyclobutyl)methyl)-1-methyl-5-oxo-4,5-dihydro-1H-1,2,4-triazole-3-carboxamide] | 7.42 | 7.04
O=C(NCC1(Cc2cc(F)ccc2F)CCC1)c1nccc(=O)[nH]1 [Example 146] | 7.62 | 6.85
O=C(NC[C@H](Cc1ccc(F)cc1F)C1CC1)c1cncc(=O)[nH]1 [Example 149] | 7.07 | 6.32
O=C(NCC1(Cc2ccc(F)cc2F)CCCC1)c1cncc(=O)[nH]1 [Example 152] | 7.44 | 6.19
O=C(NC[C@H](Cc1cc(F)ccc1F)C1CC1)c1nccc(=O)[nH]1 [Example 153] | 7.12 | 6.22
Cn1nc(C(=O)NCC2(Cc3ccc(F)c(F)c3F)CCC2)[nH]c1=O [Example 156] | 7.24 | 6.28
Cn1nc(C(=O)NCC2(Cc3cc(F)c(F)cc3F)CCC2)[nH]c1=O [Example 157, 1-methyl-5-oxo-N-((1-(2,4,5-trifluorobenzyl)cyclobutyl)methyl)-4,5-dihydro-1H-1,2,4-triazole-3-carboxamide] | 7.81 | 7.03
O=C(NCC1(Cc2ccc(F)cc2F)CCC1)c1nccc(=O)[nH]1 [Example 160] | 7.7 | 6.28
O=C(NCC1(Cc2cc(F)ccc2F)CCC1)c1cncc(=O)[nH]1 [Example 174] | 7.74 | 6.29
O=C(NCC1(Cc2ccc(F)cc2F)CCC1)c1ccc(=O)[nH]n1 [Example 175] | 6.81 | 5.92
O=C(NCC1(Cc2cccc(F)c2)CCC1)c1ccc(=O)[nH]n1 [Example 177] | 6.65 | 5.85
CC[C@H](CNC(=O)c1nccc(=O)[nH]1)Cc1ccc(F)cc1F [Example 191] | 7.42 | 6.47
O=C(NC[C@H](Cc1ccc(F)cc1F)C1CC1)c1nncc(=O)[nH]1 [Example 195, (R)-N-(2-cyclopropyl-3-(2,4-difluorophenyl)propyl)-5-oxo-4,5-dihydro-1,2,4-triazine-3-carboxamide] | 7.43 | 6.37
O=C(NC[C@H](Cc1ccc(F)c(F)c1)C1CC1)c1noc(=O)[nH]1 [Example 203] | 7.66 | 6.48
O=C(NCC1(Cc2ccc(F)cc2F)CCC1)c1noc(=O)[nH]1 [Example 205] | 7.38 | 6.15
O=C(NC[C@H](Cc1cc(F)ccc1F)C1CC1)c1noc(=O)[nH]1 [Example 207] | 7.65 | 6.12
C[C@@](CNC(=O)c1ncc(Cl)c(=O)[nH]1)(Cc1ccc(F)cc1F)C1CC1 [Example 259, 5-chloro-N-[(2R)-2-cyclopropyl-3-(2,4-difluorophenyl)-2-methylpropyl]-4-oxo-3H-pyrimidine-2-carboxamide] | 8.22 | 6.46

Results, then the molecule that gave them:

mPTP Rat brain pIC50 (mPTP [1]) | mPTP Rat liver pIC50 (mPTP [2]) | Compound
7.28 | 6.59 | Cn1nc(C(=O)NCC(Cc2cccc(F)c2)C2CC2)[nH]c1=O (stereo not drawn) [Example 78, N-(2-Cyclopropyl-3-(3-fluorophenyl)propyl)-1-methyl-5-oxo-4,5-dihydro-1H-1,2,4-triazole-3-carboxamide]
6.29 | 5.77 | CCC(CNC(=O)c1nn(C)c(=O)[nH]1)Cc1cccs1 (stereo not drawn) [Example 80, 1-Methyl-5-oxo-N-(2-(thiophen-2-ylmethyl)butyl)-4,5-dihydro-1H-1,2,4-triazole-3-carboxamide]
7.39 | 6.16 | Cn1nc(C(=O)NCC2(Cc3cccc(F)c3F)CCC2)[nH]c1=O [Example 95, N-((1-(2,3-Difluorobenzyl)cyclobutyl)methyl)-1-methyl-5-oxo-4,5-dihydro-1H-1,2,4-triazole-3-carboxamide]
7.78 | 6.59 | CC[C@H](CNC(=O)c1nn(C)c(=O)[nH]1)Cc1ccc(F)cc1F [Example 98, (S)—N-(2-(2,4-Difluorobenzyl)butyl)-1-methyl-5-oxo-4,5-dihydro-1H-1,2,4-triazole-3-carboxamide]
7.85 | 7.01 | Cc1cc(F)ccc1C[C@@H](CNC(=O)c1nn(C)c(=O)[nH]1)C1CC1 [Example 131]
7.61 | 7.08 | Cn1nc(C(=O)NC[C@H](Cc2ccc(F)c(F)c2)C2CC2)[nH]c1=O [Example 150]
7.77 | 6.97 | Cn1nc(C(=O)NC[C@H](Cc2cc(F)ccc2F)C2CC2)[nH]c1=O [Example 159]
6.91 | 5.66 | CSc1ccccc1CC1(CNC(=O)c2nn(C)c(=O)[nH]2)CCC1 [Example 181]
6.21 | 5.15 | CC(c1ccc(F)cc1F)[C@@H](CNC(=O)c1nn(C)c(=O)[nH]1)C1CC1 (stereo partly drawn) [Example 238]
7.73 | 6.81 | Cn1nc(C(=O)NC[C@H](Cc2ccc(F)cc2Cl)C2CC2)[nH]c1=O [Example 241, (R)-N-(3-(2-chloro-4-fluorophenyl)-2-cyclopropylpropyl)-1-methyl-5-oxo-4,5-dihydro-1H-1,2,4-triazole-3-carboxamide]
5.39 | 4.95 | Cn1nc(C(=O)NC[C@@H](Cc2ccc(F)cc2Cl)C2CC2)[nH]c1=O [Example 242]
7.44 | 6.13 | Cn1nc(C(=O)NC[C@H](Cc2ccc(F)cc2F)CC(F)(F)F)[nH]c1=O [Example 245, (R)-N-(2-(2,4-difluorobenzyl)-4,4,4-trifluorobutyl)-1-methyl-5-oxo-4,5-dihydro-1H-1,2,4-triazole-3-carboxamide]
5.85 | 4.56 | Cn1nc(C(=O)NC[C@@H](Cc2ccc(F)cc2F)CC(F)(F)F)[nH]c1=O [Example 246]
